This is an account of results in patent US12030864B2, “Small molecule anticancer agents, combinations and uses thereof” (priority 2018, dated 2024).

Where two headings read alike, the source gives them in different places. Bounds are passed on as bounds.

One test concerns MDA-MB-468 cell line. Nature of the test: Cell proliferation assay. It counts as cell-based. As to conditions: 24 treatment, FIG. 13. As for the experimental part: (§1) Cell viability (FIG. 12), proliferation (FIG. 13), and protein synthesis (FIG. 14) assays were performed in MDA-MB-468 cell line in the presence of increasing concentrations of tcyDTDO or DMtcyDTDO.
Test [1] has as its system MDA-MB-468 cells. Nature of the test: Protein synthesis assay. It counts as cell-based. As for the experimental part: FIG. 11. depicts the inhibition of global protein synthesis upon treatment of MDA-MB-468 cells with tcyDTDO.
as §1
(§2) Thus, without being bound by any particular theory, it is speculated that compounds of Formula (I)-(VI) regulate DR5 steady-state protein levels in addition to the observed transcriptional induction.

Test [2] relates to MDA-MB-468 cells. Nature of the test: MTT cell viability assay. It counts as cell-based. On the procedure: MTT cell viability was evaluated using MTT (3-(4,5-dimethylthiazol-2-yl)-2,5-diphenyltetrazolium bromide) assays carried out based on the manufacturer's instructions (kit CGD1, Sigma-Aldrich, St. Louis, MO).
Cell viability assays were performed in MDA-MB-468 (FIG. 8) and BT474 (FIG. 9) cell lines in the presence of increasing concentrations of tcyDTDO and/or TRAIL using the MTT method. The results were analyzed using the Chou-Talalay method [T. C. Chou, P. Talalay, Generalized equations for the analysis of inhibitions of Michaelis-Menten and higher-order kinetic systems with two or more mutually exclusive and nonexclusive inhibitors, Eur J Biochem, 115 (1981) 207-216; T. C. Chou, P. Talalay, Quantitative analysis of dose-effect relationships: the combined effects of multiple drugs or enzyme inhibitors, Adv Enzyme Regul, 22 (1984) 27-55.] to calculate combination indices (Cis) where CI<1 denotes synergy, CI=1 denotes additivity, and C I>1 denotes antagonism.
as §1
For orientation: Tetrazolium dyes change colour on reduction, which living cells bring about.

The subject of test [3] is EGFR, DR4, and DR5 in MDA-MB-468 breast cancer cells. As to the kind of experiment: Immunoblot of cell extracts prepared under non-reducing conditions. It counts as cell-based. The settings on record: 24 h, FIG. 16. On the procedure: MDA-MB-468 breast cancer cells were treated for 24 h with the indicated concentrations of DMtcyDTDO and cells were analyzed by immunoblot. Cell extracts were prepared under non-reducing conditions in the presence of 100 mM N-ethylmaleimide to preserve disulfide bonding patterns (FIG. 16). […] The oligomerized forms of DR4 and DR5 represent the activated form of these receptors.
(In general: In western blotting, separated proteins are transferred to a membrane and probed.)

For test [4], the system named is MDA-MB-468 cells. As to the kind of experiment: Immunoblot assays. It is filed as cell-based. The settings on record: for PARP cleavage: MDA-MB-468, single agent, FIG. 15; for responsiveness of the cell line to treatment: MDA-MB-468 TNBC line.
Test [5] concerns DR5Long in MDA-MB-468 cell line. It counts as cell-based. From the text: A MDA-MB-468 cell line was engineered to stably express the long form of DR5 (DR5Long) in a tetracycline-inducible manner in order to separate DR5A effects on DR5 protein stability from transcriptional activation.
For test [6], the system named is protein thiolates of MDA-MB-468 cell lysates. As to the kind of experiment: Protein thiolate reactivity assay (BGPD labeling of cell lysates). It is filed as biochemical. As to conditions: MDA-MB-468 cell lysates treated with compound in molar excess, then BGPD; FIG. 2. On the procedure:
To assess tcyDTDO reactivity with protein thiolates, MDA-MB-468 cell lysates were treated with various compounds in sufficient molar excess to block all protein thiolates. A non-selective thiol-reactive biotinylated analog (BGPD, FIG. 2) was then added to quantify free thiolates remaining after the pre-labeling.

The test system of a further test is DR5 in MDA-MB-468 cells. Nature of the test: DR5 oligomerization immunoblot. The settings on record: FIGS. 6 and 7. It is filed as cell-based. The text has this:
Oligomerization of DR5 was also investigated in MDA-MB-468 cells as shown in FIG. 6 and FIG. 7, which is a magnification of the DR5Long/DR5Short portion of the immunoblot in FIG. 6.

Test [7] relates to DR5 transcription in HEK293 cells. As to the kind of experiment: DR5 transcriptional reporter construct. As to conditions: 5 μM; FIG. 10. It is filed as cell-based.
Description: FIG. 10. depicts increases in DR5 transcription by tcyDTDO in HEK293 cells as measured using a transcriptional reporter construct.
as §2

For a further test, the system named is BT474 cells. Nature of the test: Immunoblot assays. As to conditions: BT474 cancer line. It counts as cell-based.

For orientation: inhibition means the percentage by which the read-out fell short of the control.

With `CO[C@H]1C[C@@H]2CS(=O)(=O)SC[C@H]2C[C@@H]1OC` (racemic) [DMtcyDTDO, (4aS,6S,7S,8aS)- and (4aR,6R,7R,8aR)-6,7-Dimethoxyoctahydrobenzo[d][1,2]dithiine 2,2-dioxide], in the test with MDA-MB-468 cell line, the “effect on proliferation compared to equal doses of tcyDTDO” value is recorded as “significantly greater effect”. Moreover, the “effect on protein synthesis compared to equal doses of tcyDTDO” value in the test with MDA-MB-468 cells [1] (24 treatment, FIG. 14) was “significantly greater effect”. Besides, the “effect on cell viability compared to equal doses of tcyDTDO” value in the test on MDA-MB-468 cells [2] (MDA-MB-468, 24 treatment, FIG. 12) is recorded as “significantly greater effect”. Moreover, the “oligomerization of EGFR, DR4, and DR5” value in test [3] (100 mM N-ethylmaleimide) was “induces oligomerization of EGFR, DR4, and DR5”. In addition, the DR5 level result in test [3] was “upregulates DR5”. Moreover, in the test on MDA-MB-468 cells [4], the PARP cleavage result was “induce PARP cleavage” and the “responsiveness of the cell line to treatment” value (shortened to “responsiveness”) is on record as “highly responsive”.
Take `O[C@H](CS)[C@H](O)CS` (racemic) [Dithiothreitol (DTT), Dithiothreitol]: the “doxycycline-mediated increase in DR5Long” value in [5] (reducing conditions, FIG. 5) is recorded as “did not mimic the effects of tcyDTDO”.
With `CCN1C(=O)C=CC1=O` [N-ethylmaleimide (NEM), N-ethylmaleimide, reference compound], in test [6], the “BGPD labeling of free thiolates remaining after pre-labeling” value is “prevented BGPD labeling”.
With `CC(C)[C@H](NC(=O)c1ccc2ccccc2n1)C(=O)N[C@@H](CC(=O)O)C(=O)COc1c(F)cccc1F` [Q-VD-OPH, reference compound], the “effect on tcyDTDO/TRAIL downregulation of EGFR, Akt, phospho-Akt, PDK1” value in the test with MDA-MB-468 cells [4] (MDA-MB-468 cells) is recorded as “partially reverses”. Moreover, the “effect on tcyDTDO-mediated upregulation of DR5 or the ER stress response” value in the test on MDA-MB-468 cells [4] (caspase inhibitor added) is recorded as “does not alter”. In the test with MDA-MB-468 cells [4] (caspase inhibitor added, FIGS. 3, 4), the “effect on PARP cleavage induced by tcyDTDO/TRAIL” value is “blocked”.
As to `C/C=C(/C)C(=O)O[C@H]1C(C)=C2[C@H]([C@@H]1OC(=O)CCCCCCC)[C@@](C)(OC(C)=O)C[C@H](OC(=O)CCC)[C@@]1(O)[C@H]2OC(=O)[C@@]1(C)O` [Thapsigargin], the “doxycycline-mediated increase in DR5Long” value in [5] (reducing conditions, FIG. 5) is given as “did not mimic the effects of tcyDTDO”.
Turning to `O=S1(=O)CC2CCCCC2CS1` (stereo not shown) [tcyDTDO], the “DR5 dimerization and oligomerization” value in the test on DR5 in MDA-MB-468 cells was “increase in DR5 dimerization and oligomerization”. Further, in test [7], the DR5 transcription entry is “increased DR5 transcription”. The “doxycycline-mediated increase in DR5Long” value in test [5] (reducing conditions, FIG. 5) is recorded as “enhanced”. Further, the inhibition at 5 µM in the test on MDA-MB-468 cells [1] (Homo sapiens, 5 μM, FIG. 11, read-out: inhibition of global protein synthesis) is over 95%. Besides, the “responsiveness” value with BT474 cells was “highly responsive”. Also, the “potency in reducing cancer cell viability” value with MDA-MB-468 cells [2] (MTT, FIG. 1, compared with the other compounds profiled) was “most potent compound identified so far”. In addition, in the test on MDA-MB-468 cells [4], the PARP cleavage result is reported as “induce PARP cleavage” and the “responsiveness” value is reported as “highly responsive”. For the same compound, the DR5 expression result with MDA-MB-468 cells [4] (immunoblot) was “increased DR5 expression”. Moreover, the “BGPD labeling of free thiolates remaining after pre-labeling” value in test [6] is recorded as “did not reduce BGPD labeling”.
Cyclosporine A [Cyclosporine A (CsA)]: in [5], the “doxycycline-mediated increase in DR5Long” value was “did not mimic the effects of tcyDTDO”.
Regarding Tunicamycin, the “doxycycline-mediated increase in DR5Long” value in test [5] (reducing conditions, FIG. 5) is reported as “did not mimic the effects of tcyDTDO”.
